Test results as given in ChEMBL document CHEMBL3044960, “Evaluation of fungicide applications to sweet orange at different flowering stages for control of postbloom fruit drop caused by Colletotrichum acutatum” (2008).
Activity calls are given as the source filed them. The rule behind the calls is not given here.

What was measured:
[1] = test system: Colletotrichum acutatum; test: Fungicidal activity against Colletotrichum acutatum infested Citrus sinensis assessed as total fruit weight per plant at 0.5 g/l applied through airblast sprayer during hollow ball flower stage measured after 70 days (Rvb =49.88 kg); assay type: functional
[2] = test system: Colletotrichum acutatum; test: Fungicidal activity against Colletotrichum acutatum infested Citrus sinensis assessed as reduction in number of symptomatic flowers at 0.5 g/l applied through airblast sprayer during green bud flower stage measured after 7 days; assay type: functional, organism-based
[3] = test system: Colletotrichum acutatum; test: Fungicidal activity against Colletotrichum acutatum infested Citrus sinensis assessed as reduction in symptomatic flowers at 0.5 g/l applied through airblast sprayer during white bud and hollow ball flower stages measured after 7 days; assay type: functional, organism-based
[4] = test system: Colletotrichum acutatum; test: Fungicidal activity against Colletotrichum acutatum infested Citrus sinensis assessed as total fruit weight per plant at 0.5 g/l applied through airblast sprayer during open flower stage measured after 70 days (Rvb =49.88 kg); assay type: functional
[5] = test system: Colletotrichum acutatum; test: Fungicidal activity against Colletotrichum acutatum infested Citrus sinensis assessed as reduction in persistant calyces at 0.5 g/l applied through airblast sprayer during green bud to white ball flower stages measured after 7 days; assay type: functional, organism-based
[6] = test system: Colletotrichum acutatum; test: Fungicidal activity against Colletotrichum acutatum infested Citrus sinensis assessed as increase in fruit set at 0.5 g/l applied through airblast sprayer during white bud and hollow ball flower stages measured after 70 days relative to control; assay type: functional, organism-based
[7] = test system: Colletotrichum acutatum; test: Fungicidal activity against Colletotrichum acutatum infested Citrus sinensis assessed as increase in fruit set at 0.5 g/l applied through airblast sprayer during open flower stage measured after 70 days; assay type: functional, organism-based
[8] = test system: Colletotrichum acutatum; test: Fungicidal activity against Colletotrichum acutatum infested Citrus sinensis assessed as reduction in number of symptomatic flowers at 0.5 g/l applied through airblast sprayer during green bud and white bud flower stages measured after 7 days; assay type: functional, organism-based
[9] = test system: Colletotrichum acutatum; test: Fungicidal activity against Colletotrichum acutatum infested Citrus sinensis assessed as increase in fruit set percentage at 0.5 g/l applied through airblast sprayer during green bud to white ball flower stages measured after 70 days in presence of KNO3; assay type: functional, organism-based
[10] = test system: Colletotrichum acutatum; test: Fungicidal activity against Colletotrichum acutatum infested Citrus sinensis assessed as reduction in symptomatic flowers at 0.5 g/l applied through airblast sprayer during open flower stage measured after 7 days; assay type: functional, organism-based
[11] = test system: Colletotrichum acutatum; test: Fungicidal activity against Colletotrichum acutatum infested Citrus sinensis assessed as reduction in symptomatic flowers at 0.5 g/l applied through airblast sprayer during green bud and hollow ball flower stages measured after 7 days; assay type: functional, organism-based
[12] = test system: Colletotrichum acutatum; test: Fungicidal activity against Colletotrichum acutatum infested Citrus sinensis assessed as reduction in number of symptomatic flowers at 0.5 g/l applied through airblast sprayer during green bud, white bud and hollow ball flower stages measured after 7 days; assay type: functional, organism-based
[13] = test system: Colletotrichum acutatum; test: Fungicidal activity against Colletotrichum acutatum infested Citrus sinensis assessed as reduction in symptomatic flowers at 0.5 g/l applied through airblast sprayer during hollow ball flower stage measured after 7 days; assay type: functional, organism-based
[14] = test system: Colletotrichum acutatum; test: Fungicidal activity against Colletotrichum acutatum infested Citrus sinensis assessed as increase in fruit set percentage at 0.5 g/l applied through airblast sprayer during green bud to white ball flower stages measured after 70 days; assay type: functional, organism-based
[15] = test system: Colletotrichum acutatum; test: Fungicidal activity against Colletotrichum acutatum infested Citrus sinensis assessed as total fruit weight per plant at 0.5 g/l applied through airblast sprayer during green bud flower stage measured after 70 days (Rvb =65.90 kg); assay type: functional
[16] = test system: Colletotrichum acutatum; test: Fungicidal activity against Colletotrichum acutatum infested Citrus sinensis assessed as increase in fruit set at 0.5 g/l applied through airblast sprayer during white bud flower stage measured after 70 days; assay type: functional, organism-based
[17] = test system: Colletotrichum acutatum; test: Fungicidal activity against Colletotrichum acutatum infested Citrus sinensis assessed as total fruit weight per plant at 0.5 g/l applied through airblast sprayer during green bud and white bud flower stages measured after 70 days (Rvb =65.90 kg); assay type: functional
[18] = test system: Colletotrichum acutatum; test: Fungicidal activity against Colletotrichum acutatum infested Citrus sinensis assessed as total fruit weight per plant at 0.5 g/l applied through airblast sprayer during green bud and hollow ball flower stages measured after 70 days (Rvb =49.88 kg); assay type: functional
[19] = test system: Colletotrichum acutatum; test: Fungicidal activity against Colletotrichum acutatum infested Citrus sinensis assessed as total fruit weight per plant at 0.5 g/l applied through airblast sprayer during white bud and hollow ball flower stages measured after 70 days (Rvb =49.88 kg); assay type: functional
[20] = test system: Colletotrichum acutatum; test: Fungicidal activity against Colletotrichum acutatum infested Citrus sinensis assessed as increase in fruit set at 0.5 g/l applied through airblast sprayer during green bud flower stage measured after 70 days; assay type: functional, organism-based
[21] = test system: Colletotrichum acutatum; test: Fungicidal activity against Colletotrichum acutatum infested Citrus sinensis assessed as total fruit weight per plant at 0.5 g/l applied through airblast sprayer during green bud until open flower stages measured after 70 days (Rvb =65.90 kg); assay type: functional
[22] = test system: Colletotrichum acutatum; test: Fungicidal activity against Colletotrichum acutatum infested Citrus sinensis assessed as reduction in number of symptomatic flowers at 0.5 g/l applied through airblast sprayer during green bud until open flower stages measured after 7 days; assay type: functional, organism-based
[23] = test system: Colletotrichum acutatum; test: Fungicidal activity against Colletotrichum acutatum infested Citrus sinensis assessed as increase in fruit production per tree at 0.5 g/l applied through airblast sprayer during green bud to white ball flower stages measured after 70 days; assay type: functional, organism-based
[24] = test system: Colletotrichum acutatum; test: Fungicidal activity against Colletotrichum acutatum infested Citrus sinensis assessed as total fruit weight per plant at 0.5 g/l applied through airblast sprayer during green bud, white bud and hollow ball flower stages measured after 70 days (Rvb =65.90 kg); assay type: functional
[25] = test system: Colletotrichum acutatum; test: Fungicidal activity against Colletotrichum acutatum infested Citrus sinensis assessed as increase in fruit production per tree at 0.5 g/l applied through airblast sprayer during green bud to white ball flower stages measured after 70 days in presence of KNO3; assay type: functional, organism-based
[26] = test system: Colletotrichum acutatum; test: Fungicidal activity against Colletotrichum acutatum infested Citrus sinensis assessed as reduction in symptomatic flowers at 1.25 g/l applied through airblast sprayer during open flower stage measured after 7 days; assay type: functional, organism-based
[27] = test system: Colletotrichum acutatum; test: Fungicidal activity against Colletotrichum acutatum infested Citrus sinensis assessed as total fruit weight per plant at 1.25 g/l applied through airblast sprayer during green bud flower stage measured after 70 days (Rvb =65.90 kg); assay type: functional
[28] = test system: Colletotrichum acutatum; test: Fungicidal activity against Colletotrichum acutatum infested Citrus sinensis assessed as total fruit weight per plant at 1.25 g/l applied through airblast sprayer during green bud and hollow ball flower stages measured after 70 days (Rvb =49.88 kg); assay type: functional
[29] = test system: Colletotrichum acutatum; test: Fungicidal activity against Colletotrichum acutatum infested Citrus sinensis assessed as increase in fruit production per tree at 1 g/l applied through airblast sprayer during green bud to white ball flower stages measured after 70 days; assay type: functional, organism-based
[30] = test system: Colletotrichum acutatum; test: Fungicidal activity against Colletotrichum acutatum infested Citrus sinensis assessed as total fruit weight per plant at 1.25 g/l applied through airblast sprayer during green bud, white bud and hollow ball flower stages measured after 70 days (Rvb =65.90 kg); assay type: functional
[31] = test system: Colletotrichum acutatum; test: Fungicidal activity against Colletotrichum acutatum infested Citrus sinensis assessed as increase in fruit set at 1.25 g/l applied through airblast sprayer during open flower stage measured after 70 days; assay type: functional, organism-based
[32] = test system: Colletotrichum acutatum; test: Fungicidal activity against Colletotrichum acutatum infested Citrus sinensis assessed as reduction in number of symptomatic flowers at 1.25 g/l applied through airblast sprayer during green bud, white bud and hollow ball flower stages measured after 7 days; assay type: functional, organism-based
[33] = test system: Colletotrichum acutatum; test: Fungicidal activity against Colletotrichum acutatum infested Citrus sinensis assessed as increase in fruit set percentage at 1 g/l applied through airblast sprayer during green bud to white ball flower stages measured after 70 days; assay type: functional, organism-based
[34] = test system: Colletotrichum acutatum; test: Fungicidal activity against Colletotrichum acutatum infested Citrus sinensis assessed as increase in fruit set at 1.25 g/l applied through airblast sprayer during green bud, white bud and hollow ball flower stages measured after 70 days; assay type: functional, organism-based
[35] = test system: Colletotrichum acutatum; test: Fungicidal activity against Colletotrichum acutatum infested Citrus sinensis assessed as reduction in persistant calyces at 1 g/l applied through airblast sprayer during green bud to white ball flower stages measured after 7 days; assay type: functional, organism-based
[36] = test system: Colletotrichum acutatum; test: Fungicidal activity against Colletotrichum acutatum infested Citrus sinensis assessed as total fruit weight per plant at 1.25 g/l applied through airblast sprayer during green bud until open flower stages measured after 70 days (Rvb =65.90 kg); assay type: functional
[37] = test system: Colletotrichum acutatum; test: Fungicidal activity against Colletotrichum acutatum infested Citrus sinensis assessed as reduction in symptomatic flowers at 1.25 g/l applied through airblast sprayer during hollow ball flower stage measured after 7 days; assay type: functional, organism-based
[38] = test system: Colletotrichum acutatum; test: Fungicidal activity against Colletotrichum acutatum infested Citrus sinensis assessed as reduction in persistant calyces at 1.25 g/l applied through airblast sprayer during green bud to white ball flower stages measured after 7 days; assay type: functional, organism-based
[39] = test system: Colletotrichum acutatum; test: Fungicidal activity against Colletotrichum acutatum infested Citrus sinensis assessed as reduction in symptomatic flowers at 1.25 g/l applied through airblast sprayer during white bud and hollow ball flower stages measured after 7 days; assay type: functional, organism-based
[40] = test system: Colletotrichum acutatum; test: Fungicidal activity against Colletotrichum acutatum infested Citrus sinensis assessed as total fruit weight per plant at 1.25 g/l applied through airblast sprayer during white bud and hollow ball flower stages measured after 70 days (Rvb =49.88 kg); assay type: functional
[41] = test system: Colletotrichum acutatum; test: Fungicidal activity against Colletotrichum acutatum infested Citrus sinensis assessed as increase in fruit set percentage at 1.25 g/l applied through airblast sprayer during green bud to white ball flower stages measured after 70 days; assay type: functional, organism-based
[42] = test system: Colletotrichum acutatum; test: Fungicidal activity against Colletotrichum acutatum infested Citrus sinensis assessed as increase in fruit set at 1.25 g/l applied through airblast sprayer during white bud and hollow ball flower stages measured after 70 days relative to control; assay type: functional, organism-based
[43] = test system: Colletotrichum acutatum; test: Fungicidal activity against Colletotrichum acutatum infested Citrus sinensis assessed as total fruit weight per plant at 1.25 g/l applied through airblast sprayer during green bud and white bud flower stages measured after 70 days (Rvb =65.90 kg); assay type: functional
[44] = test system: Colletotrichum acutatum; test: Fungicidal activity against Colletotrichum acutatum infested Citrus sinensis assessed as increase in fruit production per tree at 1.25 g/l applied through airblast sprayer during green bud to white ball flower stages measured after 70 days; assay type: functional, organism-based
[45] = test system: Colletotrichum acutatum; test: Fungicidal activity against Colletotrichum acutatum infested Citrus sinensis assessed as reduction in symptomatic flowers at 1.25 g/l applied through airblast sprayer during green bud and hollow ball flower stages measured after 7 days; assay type: functional, organism-based
[46] = test system: Colletotrichum acutatum; test: Fungicidal activity against Colletotrichum acutatum infested Citrus sinensis assessed as total fruit weight per plant at 1.25 g/l applied through airblast sprayer during open flower stage measured after 70 days (Rvb =49.88 kg); assay type: functional
[47] = test system: Colletotrichum acutatum; test: Fungicidal activity against Colletotrichum acutatum infested Citrus sinensis assessed as total fruit weight per plant at 1.25 g/l applied through airblast sprayer during hollow ball flower stage measured after 70 days (Rvb =49.88 kg); assay type: functional

COC(=O)Nc1nc2ccccc2[nH]1 [CARBENDAZIM]
Activity [1]: 57 kg | Activity [2]: Active | Activity [3]: Active | Activity [4]: 59 kg | Activity [5]: Active | Activity [6]: Active | Activity [7]: inactive | Activity [8]: Active | Activity [9]: Active | Activity [10]: inactive | Activity [11]: Active | Activity [12]: Active | Activity [13]: Active | Activity [14]: Active | Activity [15]: 53.7 kg | Activity [16]: Active | Activity [17]: 67.9 kg | Activity [18]: 73.8 kg | Activity [19]: 63.5 kg | Activity [20]: Active | Activity [21]: 114.9 kg | Activity [22]: Active | Activity [23]: Active | Activity [24]: 102.4 kg | Activity [25]: Active

O=C1c2ccccc2C(=O)N1SC(Cl)(Cl)Cl [FOLPET]
Activity [26]: inactive | Activity [27]: 48.7 kg | Activity [28]: 46 kg | Activity [29]: Active | Activity [30]: 87.7 kg | Activity [31]: inactive | Activity [32]: Active | Activity [33]: Active | Activity [34]: Active | Activity [35]: Active | Activity [36]: 86.9 kg | Activity [37]: Active | Activity [38]: Active | Activity [39]: Active | Activity [40]: 59.6 kg | Activity [41]: Active | Activity [42]: Active | Activity [43]: 53.5 kg | Activity [44]: Active | Activity [45]: Active | Activity [46]: 61.2 kg | Activity [47]: 48.2 kg
